Results as given in EP1388586A2, “Identification of broadly reactive DR restricted epitopes” (priority 1998, dated 1999).
Read-outs that look alike come from different tables or passages of the source. Ends that are not written are not given here.

Assays:
DRB1*0101 (DR1) = target: T1, DRB1*0101 (DR1) (Homo sapiens, UniProt P01903+P01911, A100R/D57E/F55L/F60I/F76Y/I96L/L162R/M171V/P40L/Q125E/R42F/V115G/Y59C); assay: Class II peptide-binding assay, DR1;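 further: competition assay: unlabeled test peptides inhibit binding of a radiolabeled probe peptide to purified DR, with half-maximal inhibition taken as an approximate dissociation constant Kd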
T1 construct: used as sources of human HLA class II molecules; endogenous in cells; host or cells: LG2 (EBV-transformed homozygous B cell line)

DRB5*0101 (DR2w2a) = target: T2, DRB5*0101 (DR2w2a) (Homo sapiens, UniProt P01903+Q30154); assay: Class II peptide-binding assay, DR2w2a (DR2w2B2); conditions: Table V B) Correct Predictions; read-out: Binding Capacity (IC50% nM) DR2w2a;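 further: competitive binding assay: unlabeled peptide inhibiting binding of a radiolabeled probe peptide to purified DR molecules at pH 7.0, IC50 approximating Kd, lower means stronger binding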
T2 construct: used as sources of human HLA class II molecules; endogenous in cells; host or cells: GM3107 (EBV-transformed homozygous B cell line)
Protocol: (§1) Class II peptide-binding assays. […] These assays were chosen as to be representative of the most common DR alleles.
(§2) Radiolabeled peptides were iodinated using the chloramine-T method. […] In appropriate stoichiometric conditions, the IC50 of an unlabeled test peptide to the purified DR is a reasonable approximation of the affinity of interaction (Kd). Peptides were tested in two to four completely independent experiments. […] Final detergent concentration in the incubation mixture was 0.05% Nonidet P-40. Assays were performed at pH 7.0 with the exception of DR3, which was performed at pH 4.5, and DRw53, which was performed at pH 5.0.
(§3) All subsequent inhibition and direct binding assays were the performed using these class II concentrations.

DRB1*0401 (DR4w4) = target: T3, DRB1*0401 (DR4w4) (Homo sapiens, UniProt P01903+P01911, A100K/A169T/F76Y/I96L/K127E/L162R/M171V/N62H/P40V/Q125Y/R42H/S133A/S149N/S66Y/V115G/V209L/W38E); assay: Class II peptide-binding assay, DR4w4;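 further: unlabeled test peptides compete with a radiolabeled probe peptide for binding to affinity-purified HLA-DR, with DR amount titrated to capture a small fraction of label, IC50 approximating Kd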
T3 construct: used as sources of human HLA class II molecules; endogenous in cells; host or cells: PREISS (EBV-transformed homozygous B cell line)

DRB1*0405 (DR4w15) = DRB1*0405 (DR4w15) (Homo sapiens, UniProt P01903+P01911, A100R/A169T/D86S/F76Y/I96L/K127E/L162R/M171V/N62H/P40V/Q125Y/R42H/S133A/S149N/S66Y/V115G/V209L/W38E); assay: Class II peptide-binding assay, DR4w15
Protocol: as §1, §2, §3
DR4w15. The β4 product DRw53 is co-expressed with DR4w15 and the determination of the specificity of the DR4w1 binding assay is complicated in that the same radiolabeled ligand is used for both the DR4w15 and DRw53 binding assays.

DRB1*1201 (DR5w12) = target: T4, DRB1*1201 (DR5w12) (Homo sapiens, UniProt P01903+P01911, A100R/A169T/D57E/D86V/F55L/H45Y/K41T/L162R/M171V/P40S/Q125H/Q178H/Q39Y/Q99D/R42G/S66L/T262R/V114A/V67L/W38E/Y59H/Y61H/Y89S); assay: Class II peptide-binding assay, DR5w12; conditions: Table V B) Correct Predictions; read-out: Binding Capacity (IC50% nM) DR5w12
T4 construct: used as sources of human HLA class II molecules; endogenous in cells; host or cells: Herluf (EBV-transformed homozygous B cell line)
Protocol: as §1
(§4) In appropriate stoichiometric conditions, the IC50 of an unlabeled test peptide to the purified DR is a reasonable approximation of the affinity of interaction (Kd). Peptides were tested in two to four completely independent experiments. […] Final detergent concentration in the incubation mixture was 0.05% Nonidet P-40. Assays were performed at pH 7.0 with the exception of DR3, which was performed at pH 4.5, and DRw53, which was performed at pH 5.0.
as §3

DRB1*1302 (DR6w19) = DRB1*1302 (DR6w19) (Homo sapiens, UniProt P01903+P01911, A100E/A169T/K41T/L162R/M171V/P40S/Q125H/Q178H/Q39Y/Q99D/R42S/S66N/T262R/V115G/W38E/Y61H); assay type: binding; conditions: Table V B) Correct Predictions; read-out: Binding Capacity (IC50% nM) DR6w19
Sequence of DRB1*1302 (DR6w19) (P01903 26-254, other chains not shown): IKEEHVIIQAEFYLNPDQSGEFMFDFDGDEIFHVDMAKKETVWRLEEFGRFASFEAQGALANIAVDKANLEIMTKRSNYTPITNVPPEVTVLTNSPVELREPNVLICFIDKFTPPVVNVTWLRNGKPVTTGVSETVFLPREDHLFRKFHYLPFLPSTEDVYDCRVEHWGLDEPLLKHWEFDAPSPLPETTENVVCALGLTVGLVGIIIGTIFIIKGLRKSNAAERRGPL

DRB1*0701 (DR7) = DRB1*0701 (DR7) (Homo sapiens, UniProt P01903+P01911, A100R/A102G/A103Q/D57E/D86V/E43K/F76Y/K127E/L162R/M171V/P40G/Q125H/Q99D/R33Q/R42Y/R54Q/S133A/S66F/T210M/V115G/Y107V/Y59L/Y89S); assay: Class II peptide-binding assay, DR7;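 further: unlabeled peptides compete with an iodinated probe peptide for binding to affinity-purified HLA-DR at neutral pH, DR amount titered to bind a small tracer fraction, IC50 approximating Kd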
DRB1*0802 (DR8w2) = target: T5, DRB1*0802 (DR8w2) (Homo sapiens, UniProt P01903+P01911, A100R/A103L/A169T/F76Y/H45Y/I96F/K41T/L162R/M171V/P40S/Q125H/Q178H/Q39Y/Q99D/R218S/R42G/S66Y/V115G/W38E); assay: Class II peptide-binding assay, DR8w2
T5 construct: used as sources of human HLA class II molecules; endogenous in cells; host or cells: OLL (EBV-transformed homozygous B cell line)
Protocol: as §1, §2, §3
DR8w2 and DR8w3. The β1 specificity of the DR8w2 and DR8w3 assays is obvious in that no β3 (and/or B4 and β5) molecule is expressed.

[1] = tested on: panel of purified HLA DR molecules; assay type: binding, human;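 further: competitive inhibition of radiolabeled probe peptide binding to purified HLA DR molecules, with inhibitory potency of unlabeled peptides taken as an approximation of affinity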
Protocol: as §1, §2, §3

DRB1*1501 (DR2w2b) = target: T6, DRB1*1501 (DR2w2b) (Homo sapiens, UniProt P01903+P01911); assay: Class II peptide-binding assay, DR2w2b (DR2w2B1); conditions: Table V A) Non Predictions; read-out: Binding Capacity DR2w2b
T6 construct: expressed in transfected cells; host or cells: L466.1 transfected fibroblasts
Protocol: as §1, §4, §3

DRB1*1101 (DR5w11) = target: T7, DRB1*1101 (DR5w11) (Homo sapiens, UniProt P01903+P01911, A100R/A169T/A87E/I96F/K41T/L162R/M171V/P40S/Q125H/Q178H/Q39Y/Q99D/R42S/S66Y/T262R/V115G/W38E); assay: Class II peptide-binding assay, DR5w11;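 further: competition by unlabeled test peptide against iodinated probe peptide binding to affinity-purified HLA-DR, class II amount titrated beforehand, half-maximal inhibitory concentration read as approximate Kd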
T7 construct: used as sources of human HLA class II molecules; endogenous in cells; host or cells: SWEIG (EBV-transformed homozygous B cell line)
T7 sequence (P01903 26-254, other chains not shown): as above

DRB1*0901 (DR9) = target: T8, DRB1*0901 (DR9) (Homo sapiens, UniProt P01903+P01911, A100R/A103E/D57H/D86V/F55Y/F60I/F76Y/I96F/K127E/L162R/M171V/P40D/Q125H/Q99R/R33Q/R42F/S133A/S66N/T210M/V115G/W38K/Y107V/Y59G/Y89S); assay: Class II peptide-binding assay, DR9; conditions: Table V A) Non Predictions; read-out: Binding Capacity DR9
T8 construct: used as sources of human HLA class II molecules; endogenous in cells; host or cells: HTC9074 (EBV-transformed homozygous B cell line); gift of Dr. Paul Harris
Protocol: as §1, §4, §3

[2] = Table V B) Correct Predictions, read-out: Binding Capacity (IC50% nM) DR1
[3] = Table V B) Correct Predictions, read-out: Binding Capacity (IC50% nM) DR4w15
[4] = Table V B) Correct Predictions, read-out: Binding Capacity (IC50% nM) DR7
[5] = Table V A) Non Predictions, read-out: Binding Capacity DR1
[6] = Table V A) Non Predictions, read-out: Binding Capacity DR4w4
[7] = Table V A) Non Predictions, read-out: Binding Capacity DR4w15
[8] = Table V A) Non Predictions, read-out: Binding Capacity DR5w11
[9] = Table V A) Non Predictions, read-out: Binding Capacity DR8w2
[10] = Table V A) Non Predictions, 12 DR molecules listed

Sequence | IC50 (DRB1*0101 (DR1); [2]) | IC50 (DRB1*0405 (DR4w15); [3]) | IC50 (DRB1*1302 (DR6w19)) | IC50 (DRB1*0701 (DR7); [4]) | Total Alleles Bound [1] | IC50 (DRB1*0101 (DR1); [5]) | IC50 (DRB1*0401 (DR4w4); [6]) | IC50 (DRB1*0405 (DR4w15); [7]) | IC50 (DRB1*1101 (DR5w11); [8]) | IC50 (DRB1*0802 (DR8w2); [9]) | Total Alleles Bound [1, 10] | further results
LAAIIFLFGPPTALRS [Peptide 1136.28] | 0.23 nM | 6670 nM | 3180 nM | 3620 nM | 3 |  |  |  |  |  |  | IC50 (DRB5*0101 (DR2w2a)): 1480 nM; IC50 (DRB1*0401 (DR4w4); Table V B) Correct Predictions, read-out: Binding Capacity (IC50% nM) DR4w4): 849 nM; IC50 (DRB1*1201 (DR5w12)): 4480 nM; IC50 (DRB1*0802 (DR8w2); Table V B) Correct Predictions, read-out: Binding Capacity (IC50% nM) DR8w2): 7540 nM
LFHYYFLSEKAPGSTV [Peptide 1136.04] |  |  |  |  |  | 24 nM | 20 nM | 563 nM | 69 nM | 55 nM | 6 | IC50 (DRB1*1501 (DR2w2b)): 1.26 µM; IC50 (DRB1*0701 (DR7); Table V A) Non Predictions, read-out: Binding Capacity DR7): 3330 nM; IC50 (DRB1*0901 (DR9)): 2.89 µM; additional DR types bound ([1]; "non-predictions" peptides, beyond DR1, 4w4 or 7): DR2w2 β2, DR4w15, 5w11 and 8w2
QEIDPLSYNYIPVNSN [Peptide 1136.55] |  | 271 nM | 5000 nM | 2450 nM | 3 |  |  |  |  |  |  | IC50 (DRB1*1101 (DR5w11); Table V B) Correct Predictions, read-out: Binding Capacity (IC50% nM) DR5w11): 4540 nM
RVYQEPQVSPPQRAET [Peptide 1136.59.01a] | 130 nM | 3140 nM |  |  | 3 |  |  |  |  |  |  | 
WLFPRFKFVWVTYASW [Peptide 1136.44.01] |  |  |  |  |  | 526 nM | 780 nM | 6550 nM | 4000 nM | 6360 nM | 2 | 
